# Test results reported in patent publication US20250249025A1, “DRUG DELIVERY CARRIER UTILIZING PROPERTY OF D-ALLOSE BEING UPTAKEN BY CANCER CELL, DRUG DELIVERY METHOD, AND COMPOSITION FOR TREATING RENAL CELL CARCINOMA” (NATIONAL UNIVERSITY CORPORATION KAGAWA UNIVERSITY, priority 2019, published 2025).
# System: human renal cell carcinoma cell line Caki-I
# Experiment: Rare sugar uptake experiment, sugar content in disrupted cell suspension of Caki-I
# Format: cell-based
# Conditions: Caki-I; named sugar added to RPMI-1640 at 10 mM, 48 hours; HPLC after ABEE labeling
# Method: (§1) An uptake amount of a rare sugar, which had been added to a medium, into carcinoma cells was analyzed using the cell lines of three types of cancers. As the rare sugar, four kinds, that is, D-allose, D-allulose (D-psicose), L-allulose (L-psicose), and allitol were used, while D-glucose and fructose were used as a monosaccharide which was not a rare sugar.
# (§2) Cells of each of the cell lines were cultured in RPMI-1640 media and during culturing, six sugars were each added to the resulting media and cultured. After culturing, an amount of each sugar taken up into the cells was analyzed. The medium to which no sugar was added during culturing was used as a control.
# (§3) Used were human bladder carcinoma cell lines (RT112, 253), and J82), human prostatic carcinoma cell lines (LNCa, Du145, and PC-3), and human renal cell carcinoma cell lines (ACHN, Caki-I, and Caki-II).
# (§4) After cells were cultured in RPMI-1640 (2000 mg D-glucose/L) media, the above monosaccharides and rare sugars were added to the resulting media, respectively. Described specifically, they were following seven combinations: RPMI-1640 alone (control), RPMI-1640+D-glucose, RPMI-1640+L-allulose, RPMI-1640+D-allulose, RPMI-1640+D-fructose, RPMI-1640+D-allose, and RPMI-1640+D-allitol. The final concentration of the sugar in the medium was adjusted to 10 mM and no sugar was added in the control.
# (§5) Five-ml portions of a 3.0×10^4 cells/ml cell suspension prepared using RPMI-1640 were seeded in dishes having a diameter of 6 cm (1.5×10^5 cells/dish) and cultured for 24 hours in the RPMI-1640 medium containing 2000 mg/l of D-glucose as a nutrient source. Twenty-four hours later, the media were changed to the culture solutions containing the monosaccharides and rare sugars described above in 2), respectively, followed by culturing for 48 hours.
# (§6) After culturing for 48 hours, the attached human carcinoma cells were mechanically separated and collected in a Spitz tube together with the culture solution and floating cells. After the supernatant formed by centrifugation (4° C., 1200 rpm, and 5 minutes) was removed to obtain cell pellets alone, 5 ml of a phosphate buffer physiological saline (PBS) was added for the purpose of washing to obtain a cell suspension of the cell pellets. A gain, the resulting cell suspension was centrifuged at 4° C. and 1200 rpm for 5 minutes and the supernatant was removed. To the cell pellets after washing was added 1 ml of pure water to suspend them therein. Ultrasonic disruption (intensity: 40%, 30 seconds) was then performed and the monosaccharide in the disrupted cell suspension was labeled with ABEE, followed by analysis by HPLC. From the area thus obtained, the sugar content in the cells was determined using a calibration curve. With respect to the ketose, two peaks were found after labeling with ABEE so that the sugar content in the cells was determined from the calibration curves of both peaks.
row,SMILES,D-glucose content in cell [µg]
1,O=C(CO)[C@H](O)[C@H](O)[C@H](O)CO [D-allulose],2.3
2,O=C(CO)[C@@H](O)[C@H](O)[C@H](O)CO [D-fructose],2.5
3,O=C[C@H](O)[C@@H](O)[C@H](O)[C@H](O)CO [D-glucose],4.4
4,O=C(CO)[C@@H](O)[C@@H](O)[C@@H](O)CO [L-allulose],2.3
5,OC[C@@H](O)[C@@H](O)[C@@H](O)[C@@H](O)CO [allitol],2.4

# Same assay, conditions: Caki-I; sugar added to RPMI-1640 at 10 mM, 48 hours; ketoses: range from two peaks
row,SMILES,Content in cell of the added sugar [µg]
1,O=C(CO)[C@@H](O)[C@H](O)[C@H](O)CO [D-fructose],16.7 to 20.7

# System: human bladder carcinoma cell line RT112
# Experiment: Rare sugar uptake experiment, sugar content in disrupted cell suspension of RT112
# Format: cell-based
# Conditions: RT112; named sugar added to RPMI-1640 at 10 mM, 48 hours; HPLC after ABEE labeling
# Method: as §1, §2, §3, §4, §5, §6
row,SMILES,D-glucose content in cell [µg]
1,O=C(CO)[C@H](O)[C@H](O)[C@H](O)CO [D-allulose],3.4
2,O=C(CO)[C@@H](O)[C@H](O)[C@H](O)CO [D-fructose],4.4
3,O=C[C@H](O)[C@@H](O)[C@H](O)[C@H](O)CO [D-glucose],16.7
4,O=C(CO)[C@@H](O)[C@@H](O)[C@@H](O)CO [L-allulose],3.9
5,OC[C@@H](O)[C@@H](O)[C@@H](O)[C@@H](O)CO [allitol],3.6

# Same assay, conditions: RT112; sugar added to RPMI-1640 at 10 mM, 48 hours; ketoses: range from two peaks
row,SMILES,Content in cell of the added sugar [µg]
1,O=C(CO)[C@@H](O)[C@H](O)[C@H](O)CO [D-fructose],12.7 to 15.7

# System: human bladder carcinoma cell line 253J
# Experiment: Rare sugar uptake experiment, sugar content in disrupted cell suspension of 253J
# Format: cell-based
# Conditions: 253J; named sugar added to RPMI-1640 at 10 mM, 48 hours; HPLC after ABEE labeling
# Method: as §1, §2, §3, §4, §5, §6
row,SMILES,D-glucose content in cell [µg]
1,O=C(CO)[C@H](O)[C@H](O)[C@H](O)CO [D-allulose],0.6
2,O=C(CO)[C@@H](O)[C@H](O)[C@H](O)CO [D-fructose],3.3
3,O=C[C@H](O)[C@@H](O)[C@H](O)[C@H](O)CO [D-glucose],4.0
4,O=C(CO)[C@@H](O)[C@@H](O)[C@@H](O)CO [L-allulose],0.5
5,OC[C@@H](O)[C@@H](O)[C@@H](O)[C@@H](O)CO [allitol],0.5

# Same assay, conditions: 253J; sugar added to RPMI-1640 at 10 mM, 48 hours; ketoses: range from two peaks
row,SMILES,Content in cell of the added sugar [µg]
1,O=C(CO)[C@@H](O)[C@H](O)[C@H](O)CO [D-fructose],0.0

# System: human prostate carcinoma cell line LNCa
# Experiment: Rare sugar uptake experiment, sugar content in disrupted cell suspension of LNCa
# Format: cell-based
# Conditions: LNCa; named sugar added to RPMI-1640 at 10 mM, 48 hours; HPLC after ABEE labeling
# Method: as §1, §2, §3, §4, §5, §6
row,SMILES,D-glucose content in cell [µg]
1,O=C(CO)[C@H](O)[C@H](O)[C@H](O)CO [D-allulose],7.5
2,O=C(CO)[C@@H](O)[C@H](O)[C@H](O)CO [D-fructose],4.1
3,O=C[C@H](O)[C@@H](O)[C@H](O)[C@H](O)CO [D-glucose],6.5
4,O=C(CO)[C@@H](O)[C@@H](O)[C@@H](O)CO [L-allulose],10.2
5,OC[C@@H](O)[C@@H](O)[C@@H](O)[C@@H](O)CO [allitol],9.2

# Same assay, conditions: LNCa; sugar added to RPMI-1640 at 10 mM, 48 hours; ketoses: range from two peaks
row,SMILES,Content in cell of the added sugar [µg]
1,O=C(CO)[C@@H](O)[C@H](O)[C@H](O)CO [D-fructose],0.0

# System: human prostate carcinoma cell line PC-3
# Experiment: Rare sugar uptake experiment, sugar content in disrupted cell suspension of PC-3
# Format: cell-based
# Conditions: PC-3; named sugar added to RPMI-1640 at 10 mM, 48 hours; HPLC after ABEE labeling
# Method: as §1, §2, §3, §4, §5, §6
row,SMILES,D-glucose content in cell [µg]
1,O=C(CO)[C@H](O)[C@H](O)[C@H](O)CO [D-allulose],1.6
2,O=C(CO)[C@@H](O)[C@H](O)[C@H](O)CO [D-fructose],2.7
3,O=C[C@H](O)[C@@H](O)[C@H](O)[C@H](O)CO [D-glucose],6.7
4,O=C(CO)[C@@H](O)[C@@H](O)[C@@H](O)CO [L-allulose],1.5
5,OC[C@@H](O)[C@@H](O)[C@@H](O)[C@@H](O)CO [allitol],2.1

# Same assay, conditions: PC-3; sugar added to RPMI-1640 at 10 mM, 48 hours; ketoses: range from two peaks
row,SMILES,Content in cell of the added sugar [µg]
1,O=C(CO)[C@@H](O)[C@H](O)[C@H](O)CO [D-fructose],16.5 to 20.1

# System: human renal cell carcinoma cell line ACHN
# Experiment: Rare sugar uptake experiment, sugar content in disrupted cell suspension of ACHN
# Format: cell-based
# Conditions: ACHN; named sugar added to RPMI-1640 at 10 mM, 48 hours; HPLC after ABEE labeling
# Method: as §1, §2, §3, §4, §5, §6
row,SMILES,D-glucose content in cell [µg]
1,O=C(CO)[C@H](O)[C@H](O)[C@H](O)CO [D-allulose],1.9
2,O=C(CO)[C@@H](O)[C@H](O)[C@H](O)CO [D-fructose],2.1
3,O=C[C@H](O)[C@@H](O)[C@H](O)[C@H](O)CO [D-glucose],5.6
4,O=C(CO)[C@@H](O)[C@@H](O)[C@@H](O)CO [L-allulose],2.1
5,OC[C@@H](O)[C@@H](O)[C@@H](O)[C@@H](O)CO [allitol],1.8

# Same assay, conditions: ACHN; sugar added to RPMI-1640 at 10 mM, 48 hours; ketoses: range from two peaks
row,SMILES,Content in cell of the added sugar [µg]
1,O=C(CO)[C@@H](O)[C@H](O)[C@H](O)CO [D-fructose],16.8 to 19.0

# System: human prostate carcinoma cell line Du145
# Experiment: Rare sugar uptake experiment, sugar content in disrupted cell suspension of Du145
# Format: cell-based
# Conditions: Du145; named sugar added to RPMI-1640 at 10 mM, 48 hours; HPLC after ABEE labeling
# Method: as §1, §2, §3, §4, §5, §6
row,SMILES,D-glucose content in cell [µg]
1,O=C(CO)[C@H](O)[C@H](O)[C@H](O)CO [D-allulose],3.9
2,O=C(CO)[C@@H](O)[C@H](O)[C@H](O)CO [D-fructose],4.2
3,O=C[C@H](O)[C@@H](O)[C@H](O)[C@H](O)CO [D-glucose],4.4
4,O=C(CO)[C@@H](O)[C@@H](O)[C@@H](O)CO [L-allulose],2.5
5,OC[C@@H](O)[C@@H](O)[C@@H](O)[C@@H](O)CO [allitol],4.5

# Same assay, conditions: Du145; sugar added to RPMI-1640 at 10 mM, 48 hours; ketoses: range from two peaks
row,SMILES,Content in cell of the added sugar [µg]
1,O=C(CO)[C@@H](O)[C@H](O)[C@H](O)CO [D-fructose],12.9 to 17.0

# System: human bladder carcinoma cell line J82
# Experiment: Rare sugar uptake experiment, sugar content in disrupted cell suspension of J82
# Format: cell-based
# Conditions: J82; named sugar added to RPMI-1640 at 10 mM, 48 hours; HPLC after ABEE labeling
# Method: as §1, §2, §3, §4, §5, §6
row,SMILES,D-glucose content in cell [µg]
1,O=C(CO)[C@H](O)[C@H](O)[C@H](O)CO [D-allulose],2.1
2,O=C(CO)[C@@H](O)[C@H](O)[C@H](O)CO [D-fructose],2.7
3,O=C[C@H](O)[C@@H](O)[C@H](O)[C@H](O)CO [D-glucose],7.2
4,O=C(CO)[C@@H](O)[C@@H](O)[C@@H](O)CO [L-allulose],1.9
5,OC[C@@H](O)[C@@H](O)[C@@H](O)[C@@H](O)CO [allitol],2.4

# Same assay, conditions: J82; sugar added to RPMI-1640 at 10 mM, 48 hours; ketoses: range from two peaks
row,SMILES,Content in cell of the added sugar [µg]
1,O=C(CO)[C@@H](O)[C@H](O)[C@H](O)CO [D-fructose],11.1 to 15.0

# System: human renal cell carcinoma cell line Caki-II
# Experiment: Rare sugar uptake experiment, sugar content in disrupted cell suspension of Caki-II
# Format: cell-based
# Conditions: Caki-II; named sugar added to RPMI-1640 at 10 mM, 48 hours; HPLC after ABEE labeling
# Method: as §1, §2, §3, §4, §5, §6
row,SMILES,D-glucose content in cell [µg]
1,O=C(CO)[C@H](O)[C@H](O)[C@H](O)CO [D-allulose],3.1
2,O=C(CO)[C@@H](O)[C@H](O)[C@H](O)CO [D-fructose],3.6
3,O=C[C@H](O)[C@@H](O)[C@H](O)[C@H](O)CO [D-glucose],8.4
4,O=C(CO)[C@@H](O)[C@@H](O)[C@@H](O)CO [L-allulose],1.7
5,OC[C@@H](O)[C@@H](O)[C@@H](O)[C@@H](O)CO [allitol],4.3

# Same assay, conditions: Caki-II; sugar added to RPMI-1640 at 10 mM, 48 hours; ketoses: range from two peaks
row,SMILES,Content in cell of the added sugar [µg]
1,O=C(CO)[C@@H](O)[C@H](O)[C@H](O)CO [D-fructose],20.4 to 21.3
